{"source": "PubChem BioAssay (NCI)", "experiment_in_all_cases": "growth of human tumour cells (NCI), 48 h", "key": {"BT-549 breast": {"test_system": "BT-549 breast"}, "SK-MEL-28 melanoma": {"test_system": "SK-MEL-28 melanoma"}, "HL-60(TB) leukemia": {"test_system": "HL-60(TB) leukemia"}, "CAKI-1 renal": {"test_system": "CAKI-1 renal"}, "SK-MEL-5 melanoma": {"test_system": "SK-MEL-5 melanoma"}, "RXF 393 renal": {"test_system": "RXF 393 renal"}, "NCI-H460 lung": {"test_system": "NCI-H460 lung"}, "TK-10 renal": {"test_system": "TK-10 renal"}, "MDA-MB-435": {"test_system": "MDA-MB-435"}, "SR leukemia": {"test_system": "SR leukemia"}, "NCI/ADR-RES ovarian": {"test_system": "NCI/ADR-RES ovarian"}, "K-562 leukemia": {"test_system": "K-562 leukemia"}, "SF-539 CNS": {"test_system": "SF-539 CNS"}, "HOP-92 NSCLC": {"test_system": "HOP-92 NSCLC"}, "A498 renal": {"test_system": "A498 renal"}, "U251 CNS": {"test_system": "U251 CNS"}, "SW-620 colon": {"test_system": "SW-620 colon"}, "HOP-62 NSCLC": {"test_system": "HOP-62 NSCLC"}, "A549 NSCLC": {"test_system": "A549 NSCLC"}, "OVCAR-8 ovarian": {"test_system": "OVCAR-8 ovarian"}, "MCF7 breast": {"test_system": "MCF7 breast"}, "UACC-257 melanoma": {"test_system": "UACC-257 melanoma"}, "M14 melanoma": {"test_system": "M14 melanoma"}, "SK-OV-3 ovarian": {"test_system": "SK-OV-3 ovarian"}, "MDA-MB-468 breast": {"test_system": "MDA-MB-468 breast"}, "KM12 colon": {"test_system": "KM12 colon"}, "PC-3 prostate": {"test_system": "PC-3 prostate"}, "IGROV1 ovarian": {"test_system": "IGROV1 ovarian"}}, "note": "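Grown in 96-well plates, cells were treated for 48 hours with each compound at five concentrations. Insufficient inhibition: endpoint recorded as highest concentration tested. The concentration for 50% growth inhibition is given as GI50. TGI: total growth inhibition.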", "data": [{"smiles": "O=C1N/C(=N\\c2nccs2)S/C1=C\\c1ccc([N+](=O)[O-])cc1", "values": [{"measurement": "GI50", "setting": "BT-549 breast", "result": 6.87, "unit": "µM"}, {"measurement": "TGI", "setting": "BT-549 breast", "result": 41.4, "unit": "µM"}, {"measurement": "GI50", "setting": "SK-MEL-28 melanoma", "result": 14, "unit": "µM"}, {"measurement": "TGI", "setting": "SK-MEL-28 melanoma", "result": "> 100", "unit": "µM"}, {"measurement": "GI50", "setting": "HL-60(TB) leukemia", "result": 3.62, "unit": "µM"}, {"measurement": "TGI", "setting": "HL-60(TB) leukemia", "result": 24.5, "unit": "µM"}, {"measurement": "GI50", "setting": "CAKI-1 renal", "result": 12.7, "unit": "µM"}, {"measurement": "TGI", "setting": "CAKI-1 renal", "result": 82.8, "unit": "µM"}, {"measurement": "GI50", "setting": "SK-MEL-5 melanoma", "result": 7.45, "unit": "µM"}, {"measurement": "TGI", "setting": "SK-MEL-5 melanoma", "result": 20.2, "unit": "µM"}, {"measurement": "GI50", "setting": "RXF 393 renal", "result": 12.4, "unit": "µM"}, {"measurement": "TGI", "setting": "RXF 393 renal", "result": 46.3, "unit": "µM"}, {"measurement": "GI50", "setting": "NCI-H460 lung", "result": 4.12, "unit": "µM"}, {"measurement": "TGI", "setting": "NCI-H460 lung", "result": 19.7, "unit": "µM"}, {"measurement": "GI50", "setting": "TK-10 renal", "result": 12.8, "unit": "µM"}, {"measurement": "TGI", "setting": "TK-10 renal", "result": 59.3, "unit": "µM"}, {"measurement": "GI50", "setting": "MDA-MB-435", "result": 12, "unit": "µM"}, {"measurement": "TGI", "setting": "MDA-MB-435", "result": "> 100", "unit": "µM"}, {"measurement": "GI50", "setting": "SR leukemia", "result": 3.41, "unit": "µM"}, {"measurement": "TGI", "setting": "SR leukemia", "result": 18, "unit": "µM"}, {"measurement": "GI50", "setting": "NCI/ADR-RES ovarian", "result": 5.03, "unit": "µM"}, {"measurement": "TGI", "setting": "NCI/ADR-RES ovarian", "result": 37.3, "unit": "µM"}, {"measurement": "GI50", "setting": "K-562 leukemia", "result": 4.24, "unit": "µM"}, {"measurement": "TGI", "setting": "K-562 leukemia", "result": "> 100", "unit": "µM"}, {"measurement": "GI50", "setting": "SF-539 CNS", "result": 5.62, "unit": "µM"}, {"measurement": "TGI", "setting": "SF-539 CNS", "result": 26.9, "unit": "µM"}, {"measurement": "GI50", "setting": "HOP-92 NSCLC", "result": 4.46, "unit": "µM"}, {"measurement": "TGI", "setting": "HOP-92 NSCLC", "result": 38.3, "unit": "µM"}, {"measurement": "GI50", "setting": "A498 renal", "result": 14.5, "unit": "µM"}, {"measurement": "TGI", "setting": "A498 renal", "result": 39.8, "unit": "µM"}, {"measurement": "GI50", "setting": "U251 CNS", "result": 4.6, "unit": "µM"}, {"measurement": "TGI", "setting": "U251 CNS", "result": "> 100", "unit": "µM"}, {"measurement": "GI50", "setting": "SW-620 colon", "result": 4.77, "unit": "µM"}, {"measurement": "TGI", "setting": "SW-620 colon", "result": "> 100", "unit": "µM"}, {"measurement": "GI50", "setting": "HOP-62 NSCLC", "result": 6.77, "unit": "µM"}, {"measurement": "TGI", "setting": "HOP-62 NSCLC", "result": 60.7, "unit": "µM"}, {"measurement": "GI50", "setting": "A549 NSCLC", "result": 4.89, "unit": "µM"}, {"measurement": "TGI", "setting": "A549 NSCLC", "result": "> 100", "unit": "µM"}, {"measurement": "GI50", "setting": "OVCAR-8 ovarian", "result": 6.43, "unit": "µM"}, {"measurement": "TGI", "setting": "OVCAR-8 ovarian", "result": 68.9, "unit": "µM"}, {"measurement": "GI50", "setting": "MCF7 breast", "result": 4.44, "unit": "µM"}, {"measurement": "TGI", "setting": "MCF7 breast", "result": 20.4, "unit": "µM"}, {"measurement": "GI50", "setting": "UACC-257 melanoma", "result": 12.4, "unit": "µM"}, {"measurement": "TGI", "setting": "UACC-257 melanoma", "result": 32.5, "unit": "µM"}, {"measurement": "GI50", "setting": "M14 melanoma", "result": 9.86, "unit": "µM"}, {"measurement": "TGI", "setting": "M14 melanoma", "result": 39.6, "unit": "µM"}, {"measurement": "GI50", "setting": "SK-OV-3 ovarian", "result": 15.7, "unit": "µM"}, {"measurement": "TGI", "setting": "SK-OV-3 ovarian", "result": 63.9, "unit": "µM"}, {"measurement": "GI50", "setting": "MDA-MB-468 breast", "result": 4.62, "unit": "µM"}, {"measurement": "TGI", "setting": "MDA-MB-468 breast", "result": 25.8, "unit": "µM"}, {"measurement": "GI50", "setting": "KM12 colon", "result": 5.91, "unit": "µM"}, {"measurement": "TGI", "setting": "KM12 colon", "result": 32.4, "unit": "µM"}, {"measurement": "GI50", "setting": "PC-3 prostate", "result": 5.98, "unit": "µM"}, {"measurement": "TGI", "setting": "PC-3 prostate", "result": "> 100", "unit": "µM"}, {"measurement": "GI50", "setting": "IGROV1 ovarian", "result": 6.89, "unit": "µM"}]}]}
